Measurements taken from patent US9221875B2, “Amphiphilic peptides for treatment of keratitis” (Agency for Science, Technology and Research, priority 2013, dated 2015).
Converted amounts (≈) assume the structure as drawn. Where two headings read alike, the source gives them in different places. Marks after values point to notes of the source that are not given here. Square brackets hold non-standard residues; d marks the D form. Peptide text beside a SMILES is read from it.

Columns and labels:
P. aeruginosa [1] = conditions: 18 h
E. coli [2] = conditions: 18 h
C. albicans [3] = tested on: C. albicans
S. aureus [4] = conditions: 18 h
[5] = tested on: 5 microorganisms tested (S. epidermidis, S. aureus, E. coli, P. aeruginosa, C. albicans); assay: Mean MIC over the panel and selectivity index (Example 2)
C. albicans [6] = conditions: 42 h
[7] = tested on: 5 microorganisms tested (S. epidermidis, S. aureus, E. coli, P. aeruginosa, C. albicans); assay: Mean MIC over the panel and selectivity index (Example 1); type: cell-based
Procedure: Red blood cells suspension incubated with PBS was used as negative control.

S. aureus [8] = conditions: 18 h; remark: listed apart in the source
E. coli [9] = conditions: 18 h; remark: listed apart in the source
P. aeruginosa [10] = conditions: 18 h; remark: listed apart in the source
S. epidermidis [11] = conditions: 18 h
E. coli [12] = type: cell-based, Escherichia coli
mice = conditions: reported values; cited from earlier work
S. epidermidis [13] = conditions: 18 h; remark: listed apart in the source
[14] = tested on: clinically isolated Mycobacterium tuberculosis
rabbit red blood cells = type: cell-based; conditions: red cells of rabbit, 1 h
C. albicans keratitis = assay: Contact lens-associated C. albicans keratitis mouse model
[15] = topical eye drops, peptides 3000 mg/L, amphotericin B 1000 mg/L

| Compound | MIC P aeruginosa (P. aeruginosa [1]) | MIC E. coli (E. coli [2]) | MIC C. albicans (C. albicans [3]) | MIC S. aureus (S. aureus [4]) | MIC C. albicans (C. albicans [6]) | GM, geometric mean of MIC values for the 5 microorganisms tested [7] | MIC S. aureus (S. aureus [8]) | MIC E. coli (E. coli [9]) | MIC P. aeruginosa (P. aeruginosa [10]) | MIC S. epidermidis (S. epidermidis [11]) | also measured |
| --- | --- | --- | --- | --- | --- | --- | --- | --- | --- | --- | --- |
| CC[C@@H](C)[C@@H](N)C(=O)N[C@H](CCCNC(=N)N)C(=O)N[C@@H](C(=O)N[C@H](CCCCN)C(=O)N[C@@H](C(=O)N[C@H](CCCNC(=N)N)C(N)=O)[C@H](C)CC)[C@H](C)CC [IK6-all D, irikir-NH2] (H-[dI][dR][dI][dK][dI][dR]-NH2; N-terminus assumed) | 125 µg/mL (≈ 157 µM) | 62.5 µg/mL (≈ 78.4 µM) | 15.6 µg/mL (≈ 19.6 µM) | 250 µg/mL (≈ 314 µM) | – | – | – | – | – | – | GM, geometric mean of MIC values for the 5 microorganisms tested [5]: 113.3 µg/mL |
| CC[C@H](C)[C@H](N)C(=O)N[C@@H](CCCNC(=N)N)C(=O)N[C@H](C(=O)N[C@@H](CCCCN)C(=O)N[C@H](C(=O)N[C@@H](CCCNC(=N)N)C(=O)N[C@H](C(=O)N[C@@H](CCCCN)C(N)=O)C(C)C)[C@@H](C)CC)C(C)C [(IRVK)2-NH2] (H-IRVKIRVK-NH2; N-terminus assumed) | – | – | – | – | 7.8 µg/mL (≈ 7.72 µM) | 78.1 µg/mL | 250 µg/mL (≈ 247 µM) | 62.5 µg/mL (≈ 61.9 µM) | 62.5 µg/mL (≈ 61.9 µM) | 7.8 µg/mL (≈ 7.72 µM) | – |
| gentamicin sulfate | – | – | – | – | – | – | – | – | – | – | MICn/MIC0 (E. coli [12]; passage 2): 2; MICn/MIC0 (E. coli [12]; passage 6): 4 |
| N=C(N)NCCC[C@H](NC(=O)[C@H](Cc1c[nH]c2ccccc12)NC(=O)[C@H](CCCCN)NC(=O)[C@H](Cc1c[nH]c2ccccc12)NC(=O)[C@H](CCCNC(=N)N)NC(=O)[C@@H](N)Cc1c[nH]c2ccccc12)C(=O)N[C@@H](Cc1c[nH]c2ccccc12)C(=O)N[C@@H](CCCCN)C(N)=O [(WRWK)2-NH2] (H-WRWKWRWK-NH2; N-terminus assumed) | – | – | – | – | 250 µg/mL (≈ 188 µM) | 92.2 µg/mL | 62.5 µg/mL (≈ 47 µM) | 15.6 µg/mL (≈ 11.7 µM) | 125 µg/mL (≈ 93.9 µM) | 7.8 µg/mL (≈ 5.86 µM) | – |
| CC(C)[C@H](N)C(=O)N[C@@H](CCCNC(=N)N)C(=O)N[C@H](C(=O)N[C@@H](CCCCN)C(=O)N[C@H](C(=O)N[C@@H](CCCNC(=N)N)C(=O)N[C@H](C(=O)N[C@@H](CCCCN)C(N)=O)C(C)C)C(C)C)C(C)C [(VRVK)2-NH2] (H-VRVKVRVK-NH2; N-terminus assumed) | – | – | – | – | 15.6 µg/mL (≈ 15.9 µM) | – | >500 µg/mL | 250 µg/mL (≈ 255 µM) | >500 µg/mL | 62.5 µg/mL (≈ 63.6 µM) | – |
| CC[C@H](C)[C@H](N)C(=O)N[C@@H](CCCNC(=N)N)C(=O)N[C@H](C(=O)N[C@@H](CCCNC(=N)N)C(=O)N[C@H](C(=O)N[C@@H](CCCNC(=N)N)C(=O)N[C@H](C(=O)N[C@@H](CCCNC(=N)N)C(N)=O)[C@@H](C)CC)[C@@H](C)CC)[C@@H](C)CC [(IRIR)2-NH2] (H-IRIRIRIR-NH2; N-terminus assumed) | – | – | – | – | 15.6 µg/mL (≈ 14.3 µM) | 13.3 µg/mL | 31.3 µg/mL (≈ 28.6 µM) | 7.8 µg/mL (≈ 7.13 µM) | 7.8 µg/mL (≈ 7.13 µM) | 3.9 µg/mL (≈ 3.56 µM) | – |
| N=C(N)NCCC[C@H](NC(=O)[C@H](Cc1ccccc1)NC(=O)[C@H](CCCCN)NC(=O)[C@H](Cc1ccccc1)NC(=O)[C@H](CCCNC(=N)N)NC(=O)[C@@H](N)Cc1ccccc1)C(=O)N[C@@H](Cc1ccccc1)C(=O)N[C@@H](CCCCN)C(N)=O [(FRFK)2-NH2] (H-FRFKFRFK-NH2; N-terminus assumed) | – | – | – | – | 62.5 µg/mL (≈ 53.2 µM) | 79.7 µg/mL | 250 µg/mL (≈ 213 µM) | 15.6 µg/mL (≈ 13.3 µM) | 62.5 µg/mL (≈ 53.2 µM) | 7.8 µg/mL (≈ 6.64 µM) | – |
| gramicidin | – | – | – | – | – | – | – | – | – | – | LD50 reported for comparator (mice): 1.5 mg/kg |
| CC[C@H](C)[C@H](N)C(=O)N[C@@H](CCCNC(=N)N)C(=O)N[C@H](C(=O)N[C@H](CCCCN)C(=O)N[C@H](C(=O)N[C@H](CCCNC(=N)N)C(=O)N[C@H](C(=O)N[C@@H](CCCCN)C(N)=O)[C@@H](C)CC)[C@@H](C)CC)[C@@H](C)CC [IK8-2D, IRIkIrIK-NH2] (H-IRI[dK]I[dR]IK-NH2; N-terminus assumed) | 7.8 µg/mL (≈ 7.51 µM) | 15.6 µg/mL (≈ 15 µM) | 3.9 µg/mL (≈ 3.76 µM) | 31.3 µg/mL (≈ 30.1 µM) | – | – | – | – | – | – | MIC S. epidermidis (S. epidermidis [13]): 3.9 µg/mL (≈ 3.76 µM); MIC M. tuberculosis ([14]; strain number 1173): 62.5 µg/mL (≈ 60.2 µM); MIC M. tuberculosis ([14]; strain number 1177): 62.5 µg/mL (≈ 60.2 µM); MIC M. tuberculosis ([14]; strain number 1178): 62.5 µg/mL (≈ 60.2 µM); MIC M. tuberculosis ([14]; strain number 1179): 125 µg/mL (≈ 120 µM); HC10, haemolysis concentration 10%: lowest peptide concentration that induces ≧10% haemolysis (rabbit red blood cells): 1600 mg/L; GM, geometric mean of MIC values for the 5 microorganisms tested [5]: 12.5 µg/mL |
| CC[C@@H](C)[C@@H](N)C(=O)N[C@H](CCCNC(=N)N)C(=O)N[C@@H](C(=O)N[C@H](CCCCN)C(=O)N[C@@H](C(=O)N[C@H](CCCNC(=N)N)C(=O)N[C@@H](C(=O)N[C@H](CCCCN)C(=O)N[C@@H](C(=O)N[C@H](CCCNC(=N)N)C(=O)N[C@@H](C(=O)N[C@H](CCCCN)C(N)=O)C(C)C)[C@H](C)CC)C(C)C)[C@H](C)CC)C(C)C [IK12-all D, irvkirvkirvk-NH2] (H-[dI][dR][dV][dK][dI][dR][dV][dK][dI][dR][dV][dK]-NH2; N-terminus assumed) | 15.6 µg/mL (≈ 10.4 µM) | 7.8 µg/mL (≈ 5.18 µM) | 31.3 µg/mL (≈ 20.8 µM) | 7.8 µg/mL (≈ 5.18 µM) | – | – | – | – | – | – | MIC S. epidermidis (S. epidermidis [13]): 1.0 µg/mL (≈ 0.664 µM); HC10, haemolysis concentration 10%: lowest peptide concentration that induces ≧10% haemolysis (rabbit red blood cells): >125^e) mg L^−1; GM, geometric mean of MIC values for the 5 microorganisms tested [5]: 12.7 µg/mL; fold reduction in MIC values compared with the L-enantiomer ([5]; against the various bacteria): 2-4 fold |
| C[C@@H]1[C@H](O)[C@@H](C)/C=C/C=C/C=C/C=C/C=C/C=C/C=C/[C@H](O[C@@H]2O[C@H](C)[C@@H](O)[C@H](N)[C@@H]2O)C[C@@H]2O[C@](O)(C[C@@H](O)C[C@@H](O)[C@H](O)CC[C@@H](O)C[C@@H](O)CC(=O)O[C@H]1C)C[C@H](O)[C@H]2C(=O)O [amphotericin B, reference compound] | – | – | – | – | – | – | – | – | – | – | fungal cells eradicated from the biofilms compared to the untreated control group (C. albicans keratitis; C. albicans counts in mice cornea, agar plating): ~90%; depth of hyphal invasion into the cornea, PAS histology (C. albicans keratitis; [15]): reduced the maximal depth of hyphal invasion; resolution of the keratitis infection (eye appearance) (C. albicans keratitis; [15]): significant resolution of the keratitis infection; clinical scores of mice corneas (slit lamp) (C. albicans keratitis; topical eye drops, peptides 3000 mg/L, amphotericin B 1000 mg/L, P<0.01): significantly lower than that in the control group |
| CC[C@@H](C)[C@@H](N)C(=O)N[C@@H](C(=O)N[C@H](CCCNC(=N)N)C(=O)N[C@H](CCCCN)C(=O)N[C@@H](C(=O)N[C@@H](C(=O)N[C@H](CCCNC(=N)N)C(=O)N[C@H](CCCCN)C(N)=O)[C@H](C)CC)[C@H](C)CC)[C@H](C)CC [Control-all D, iirkiirk-NH2] (H-[dI][dI][dR][dK][dI][dI][dR][dK]-NH2; N-terminus assumed) | >500 µg/mL | >500 µg/mL | 250 µg/mL (≈ 241 µM) | >500 µg/mL | – | – | – | – | – | – | MIC S. epidermidis (S. epidermidis [13]): >500 µg/mL; HC10, haemolysis concentration 10%: lowest peptide concentration that induces ≧10% haemolysis (rabbit red blood cells): >2000 mg/L |
| Polymyxin B [reference compound] | – | – | – | – | – | 41.4 µg/mL | 125 µg/mL | 2.0 µg/mL | 2.0 µg/mL | 15.6 µg/mL | MIC C. albicans (C. albicans [6]; room temperature): 62.5 µg/mL; LD50 reported for comparator (mice): 5.4 mg/kg |
